Tested on: B cell
Assay: B cell proliferation
Type: cell-based

How did the EC50 turn out when `Cc1ccccc1-n1c(Cn2nc(C(=O)NO)c3c(N)ncnc32)cc2cccc(C)c2c1=O` [Compound 300] was run?
The EC50 was less than 100 nM.

For `Cc1cccc2cc(Cn3nc(-c4ccc(F)c(O)c4)c4c(N)ncnc43)n(-c3ccccc3F)c(=O)c12` [Compound 9], which EC50 is on record?
The EC50 was less than 1000 nM.

With `Cc1ccccc1-n1c(Cn2nc(/C=C/C(N)=O)c3c(N)ncnc32)cc2cccc(C)c2c1=O` [Compound 174] as the compound, how does the EC50 read?
Its EC50 is less than 100 nM.

With `Cc1ccccc1-n1c(Cn2nc(-c3cccc(O)c3)c3c(N)ncnc32)cc2ccccc2c1=O` [Compound 51] as the compound, how does the EC50 read?
The EC50 was less than 1000 nM.

Which EC50 does the source give for `CC(C)n1c(Cn2nc(-c3cccc(O)c3)c3c(N)ncnc32)cc2cccc(Cl)c2c1=O` [Compound 137] here?
Its EC50 is less than 100 nM.

`Cc1ccccc1-n1c(C(C)Nc2ncnc3[nH]cnc23)cc2cccc(C)c2c1=O` (stereo not drawn) [Compound 191] was tested. Which EC50 did it give?
Its EC50 is less than 100 nM.

Which EC50 does the source give for `Cc1cccc2cc(Cn3nc(I)c4c(N)ncnc43)n(-c3ccccc3OCCN3CCOCC3)c(=O)c12` [Compound 103] here?
Its EC50 is less than 1000 nM.

`Cc1cccc2cc(Cn3nc(-c4cc(O)cc(F)c4)c4c(N)ncnc43)n(C3CC3)c(=O)c12` [Compound 101] was tested. Which EC50 did it give?
Its EC50 is less than 100 nM.

For `COc1ccccc1-n1c(Cn2nc(C#C[C@@H](C)O)c3c(N)ncnc32)cc2cccc(C)c2c1=O` [Compound 80], which EC50 is on record?
Its EC50 is less than 1000 nM.

How did the EC50 turn out when `Cc1cccc2cc(Cn3nc(-c4ccc(O)c(F)c4)c4c(N)ncnc43)n(-c3ccccc3F)c(=O)c12` [Compound 29] was run?
The EC50 was less than 1000 nM.

How did the EC50 turn out when `Cc1cccc2cc(Cn3nc(-c4cccc(O)c4)c4c(N)ncnc43)n(C3CC3)c(=O)c12` [Compound 102] was run?
Its EC50 is less than 100 nM.

`CC(=O)Nc1nc2cc(-c3nn(Cc4cc5cccc(C)c5c(=O)n4-c4ccccc4)c4ncnc(N)c34)ccc2o1` [Compound 253] was tested. Which EC50 did it give?
The EC50 was less than 100 nM.

Which EC50 does the source give for `Nc1ncnc2c1c(-c1cc(O)cc(F)c1)nn2Cc1cc2cccc(F)c2c(=O)n1-c1ccccc1F` [Compound 144] here?
The EC50 was less than 100 nM.

Which EC50 does the source give for `Cc1cccc2cc([C@H](C)Nc3ncnc4[nH]cnc34)n(C3CC3)c(=O)c12` [Compound 200] here?
The EC50 was less than 100 nM.

How did the EC50 turn out when `COc1ccccc1-n1c(Cn2nc(-c3cccc(O)c3)c3c(N)ncnc32)cc2cccc(C)c2c1=O` [Compound 74] was run?
The EC50 was less than 100 nM.

`Cc1cccc2cc(Cn3nc(-c4cn[nH]c4)c4c(N)ncnc43)n(-c3ccccc3)c(=O)c12` [Compound 206] was tested. Which EC50 did it give?
The EC50 was less than 100 nM.

Which EC50 does the source give for `Cc1cccnc1-n1c(Cn2nc(-c3cccc(O)c3)c3c(N)ncnc32)cc2cccc(C)c2c1=O` [Compound 73] here?
Its EC50 is less than 100 nM.

`Cc1cccc2cc(C(C)Nc3ncnc4[nH]cnc34)n(C3CCOCC3)c(=O)c12` (stereo not drawn) [Compound 234] was tested. Which EC50 did it give?
The EC50 was less than 100 nM.

With `Cc1cccc2cc(C(C)Nc3ncnc4[nH]cnc34)n(CCN3CCCC3)c(=O)c12` (stereo not drawn) [Compound 233] as the compound, how does the EC50 read?
The EC50 was less than 100 nM.

Which EC50 does the source give for `Cc1ccccc1-n1c(Cn2nc(-c3ccc(Cl)cc3)c3c(N)ncnc32)cc2cccc(C)c2c1=O` [Compound 49] here?
The EC50 was less than 10000 nM.

Which EC50 does the source give for `Cc1ccccc1-n1c(Cn2nc(-c3cccc(O)c3)c3c(N)ncnc32)cc2cccc(C)c2c1=O` [Compound 13] here?
Its EC50 is less than 100 nM.

For `Cc1cccc2cc(Cn3nc(-c4cccc(O)c4)c4c(N)ncnc43)n(C3CCC3)c(=O)c12` [Compound 114], which EC50 is on record?
Its EC50 is less than 1000 nM.

For `Cc1ccccc1-n1c(Cn2nc(I)c3c(N)ncnc32)cc2cccc(F)c2c1=O` [Compound 42], which EC50 is on record?
The EC50 was less than 1000 nM.

Which EC50 does the source give for `Cc1ccccc1-n1c(Cn2nc(-c3ccc(O)c(F)c3)c3c(N)ncnc32)cc2cccc(C)c2c1=O` [Compound 30] here?
The EC50 was less than 1000 nM.

For `C=Cc1nn(Cc2cc3cccc(C)c3c(=O)n2-c2ccccc2C)c2ncnc(N)c12` [Compound 180], which EC50 is on record?
The EC50 was less than 100 nM.

Which EC50 does the source give for `CCc1nn(Cc2cc3cccc(C)c3c(=O)n2-c2ccccc2)c2ncnc(N)c12` [Compound 303] here?
The EC50 was less than 100 nM.

`Cc1cccc2cc([C@@H](C)Nc3ncnc4[nH]cnc34)n(C3CC3)c(=O)c12` [Compound 199] was tested. Which EC50 did it give?
Its EC50 is greater than 10000 nM.

How did the EC50 turn out when `Cc1cccc2cc(C(C)Nc3ncnc4[nH]cnc34)n(-c3ccccc3)c(=O)c12` (stereo not drawn) [Compound 210] was run?
The EC50 was less than 100 nM.

`Cc1cccc2cc(Cn3nc(C#CC4CC4)c4c(N)ncnc43)n(-c3ccccc3F)c(=O)c12` [Compound 4] was tested. Which EC50 did it give?
Its EC50 is less than 1000 nM.

`Cc1cccc2cc(Cn3nc(C#C[C@@H](C)O)c4c(N)ncnc43)n(C3CCCCC3)c(=O)c12` [Compound 112] was tested. Which EC50 did it give?
Its EC50 is less than 10000 nM.
